What all share (assay type): binding
What all share (conditions): read-out: Ka (M^-1) (converted)

Experiment [1] deals with T1, C-phycocyanin (C-PC) (Limnospira platensis, UniProt P72508+P72509). The experiment in a line: fluorescence quenching titration (PCB emission, excitation […] nm); also near-UV CD, thermal shift of nearly […] °C. On the set-up: gene cpcA; native C-PC purified from Spirulina biomass, (αβ)3 trimer / (αβ)6 hexamer; with C-phycocyanin beta subunit (cpcB).
Target sequence in this assay (P72509 whole entry): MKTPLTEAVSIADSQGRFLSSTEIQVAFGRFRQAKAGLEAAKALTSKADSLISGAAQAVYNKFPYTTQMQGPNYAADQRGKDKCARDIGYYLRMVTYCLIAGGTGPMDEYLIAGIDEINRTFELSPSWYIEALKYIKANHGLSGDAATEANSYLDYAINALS
Target sequence in this assay (P72508 whole entry): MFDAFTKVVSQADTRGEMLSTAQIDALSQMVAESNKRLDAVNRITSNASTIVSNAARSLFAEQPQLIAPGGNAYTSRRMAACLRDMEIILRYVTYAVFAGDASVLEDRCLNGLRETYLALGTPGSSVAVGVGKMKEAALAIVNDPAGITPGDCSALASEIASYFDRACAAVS
Experiment [2] has as its target T1, C-phycocyanin (C-PC). The experiment in a line: fluorescence quenching titration (PCB emission, excitation […] nm); also UV-VIS, near-UV CD, thermal shift of nearly […] °C. Set-up: gene cpcB; native C-PC purified from Spirulina biomass, (αβ)3 trimer / (αβ)6 hexamer; with C-phycocyanin alpha subunit (cpcA).
Target sequence in this assay (P72508 whole entry): as above
Target sequence in this assay (P72509 whole entry): as the sequence (P72509 whole entry) above
The target of experiment [3] is T1, C-phycocyanin (C-PC). The experiment can be described thus: fluorescence quenching titration (PCB emission, excitation […] nm); also UV-VIS and near-UV CD; no change in Tm. Set-up: gene cpcB; native C-PC purified from Spirulina biomass, (αβ)3 trimer / (αβ)6 hexamer; with C-phycocyanin alpha subunit (cpcA).
Target sequence in this assay (P72508 whole entry): as the sequence (P72508 whole entry) above
Target sequence in this assay (P72509 whole entry): as the sequence (P72509 whole entry) above

Consider `COC1=C(OC)C(=O)C(C/C=C(\C)CC/C=C(\C)CC/C=C(\C)CC/C=C(\C)CC/C=C(\C)CC/C=C(\C)CC/C=C(\C)CC/C=C(\C)CC/C=C(\C)CCC=C(C)C)=C(C)C1=O` [coenzyme Q10], for which the Kd on C-phycocyanin (C-PC) [1] is 2940 nM.
`O=c1c(O)c(-c2ccc(O)c(O)c2)oc2cc(O)cc(O)c12` [quercetin]: the Kd on C-phycocyanin (C-PC) [2] is 2700 nM.
As to `Oc1ccc(/C=C/c2cc(O)cc(O)c2)cc1` [resveratrol], the Kd at C-phycocyanin (C-PC) [3] was 4550 nM.

The values are drawn from article PMC10779248, “Investigation of the Potential of Selected Food-Derived Antioxidants to Bind and Stabilise the Bioactive Blue Protein C-Phycocyanin from Cyanobacteria Spirulina” (International Journal of Molecular Sciences, 2023).
